This passage reports AC50 results from ChEMBL document CHEMBL5291721, “A preclinical secondary pharmacology resource illuminates target-adverse drug reaction associations of marketed drugs” (Nat Commun, 2023).

The structures appear in SMILES notation.

Experiment [1] deals with T1, Alpha-2A adrenergic receptor (Homo sapiens, UniProt P08913).
T1 sequence (P08913 whole entry): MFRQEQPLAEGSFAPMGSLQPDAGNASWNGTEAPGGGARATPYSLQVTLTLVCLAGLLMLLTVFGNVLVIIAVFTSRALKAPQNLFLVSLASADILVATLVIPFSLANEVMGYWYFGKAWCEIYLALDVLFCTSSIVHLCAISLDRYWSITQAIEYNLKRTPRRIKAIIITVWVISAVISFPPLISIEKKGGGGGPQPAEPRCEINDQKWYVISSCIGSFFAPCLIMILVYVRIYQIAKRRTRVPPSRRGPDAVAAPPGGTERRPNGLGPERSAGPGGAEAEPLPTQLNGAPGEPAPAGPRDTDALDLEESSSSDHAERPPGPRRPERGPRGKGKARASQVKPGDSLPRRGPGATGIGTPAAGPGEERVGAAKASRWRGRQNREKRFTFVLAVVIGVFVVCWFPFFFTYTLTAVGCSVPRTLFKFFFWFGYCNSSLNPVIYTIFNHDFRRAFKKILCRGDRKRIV
The class given is functional, cell-based.

Experiment [2] deals with T2, Progesterone receptor (Homo sapiens, UniProt P06401).
T2 sequence (P06401 whole entry): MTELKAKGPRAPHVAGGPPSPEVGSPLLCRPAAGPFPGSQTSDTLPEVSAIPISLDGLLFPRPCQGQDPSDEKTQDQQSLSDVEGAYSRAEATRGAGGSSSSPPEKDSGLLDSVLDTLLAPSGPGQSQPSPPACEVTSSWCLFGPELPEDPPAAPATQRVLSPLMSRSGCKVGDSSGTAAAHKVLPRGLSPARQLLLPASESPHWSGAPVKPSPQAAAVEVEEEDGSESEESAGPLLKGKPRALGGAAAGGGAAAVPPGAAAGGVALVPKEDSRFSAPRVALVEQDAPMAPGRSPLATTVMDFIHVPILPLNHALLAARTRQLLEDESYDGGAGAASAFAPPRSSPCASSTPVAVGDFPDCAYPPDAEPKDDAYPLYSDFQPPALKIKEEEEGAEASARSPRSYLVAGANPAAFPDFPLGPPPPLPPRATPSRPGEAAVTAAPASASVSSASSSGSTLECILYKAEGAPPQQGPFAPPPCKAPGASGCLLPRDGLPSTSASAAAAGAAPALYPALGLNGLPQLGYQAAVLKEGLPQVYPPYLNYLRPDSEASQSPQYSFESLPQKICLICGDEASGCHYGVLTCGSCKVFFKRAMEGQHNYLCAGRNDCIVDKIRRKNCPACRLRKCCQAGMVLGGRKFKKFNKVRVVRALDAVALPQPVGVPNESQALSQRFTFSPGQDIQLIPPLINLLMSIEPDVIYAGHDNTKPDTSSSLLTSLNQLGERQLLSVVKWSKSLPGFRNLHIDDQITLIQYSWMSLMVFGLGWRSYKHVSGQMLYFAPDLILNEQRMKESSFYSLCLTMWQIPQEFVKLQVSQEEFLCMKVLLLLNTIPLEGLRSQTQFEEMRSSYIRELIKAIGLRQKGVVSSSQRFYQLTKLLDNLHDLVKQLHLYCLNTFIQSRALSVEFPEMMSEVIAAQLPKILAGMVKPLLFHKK
The class given is functional.

For experiment [3], the target named is Gamma-aminobutyric acid receptor subunit alpha-1 (Rattus norvegicus, UniProt P62813). The class given is functional.
Gamma-aminobutyric acid receptor subunit alpha-1, sequence (P62813 whole entry): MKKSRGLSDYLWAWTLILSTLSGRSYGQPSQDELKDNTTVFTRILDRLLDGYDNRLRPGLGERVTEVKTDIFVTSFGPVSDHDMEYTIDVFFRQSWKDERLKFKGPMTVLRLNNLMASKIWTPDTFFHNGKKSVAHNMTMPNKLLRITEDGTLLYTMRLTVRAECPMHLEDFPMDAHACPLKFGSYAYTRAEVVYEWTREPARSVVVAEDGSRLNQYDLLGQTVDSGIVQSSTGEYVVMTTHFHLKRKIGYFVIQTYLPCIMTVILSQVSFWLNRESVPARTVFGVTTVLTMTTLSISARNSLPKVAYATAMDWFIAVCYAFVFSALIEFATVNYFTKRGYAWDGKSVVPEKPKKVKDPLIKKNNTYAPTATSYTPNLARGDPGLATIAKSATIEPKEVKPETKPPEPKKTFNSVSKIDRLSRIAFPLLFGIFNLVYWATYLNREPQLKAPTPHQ
The target of experiment [4] is T3, D(1A) dopamine receptor (Homo sapiens, UniProt P21728). The class given is functional, cell-based.
T3 sequence (P21728 whole entry): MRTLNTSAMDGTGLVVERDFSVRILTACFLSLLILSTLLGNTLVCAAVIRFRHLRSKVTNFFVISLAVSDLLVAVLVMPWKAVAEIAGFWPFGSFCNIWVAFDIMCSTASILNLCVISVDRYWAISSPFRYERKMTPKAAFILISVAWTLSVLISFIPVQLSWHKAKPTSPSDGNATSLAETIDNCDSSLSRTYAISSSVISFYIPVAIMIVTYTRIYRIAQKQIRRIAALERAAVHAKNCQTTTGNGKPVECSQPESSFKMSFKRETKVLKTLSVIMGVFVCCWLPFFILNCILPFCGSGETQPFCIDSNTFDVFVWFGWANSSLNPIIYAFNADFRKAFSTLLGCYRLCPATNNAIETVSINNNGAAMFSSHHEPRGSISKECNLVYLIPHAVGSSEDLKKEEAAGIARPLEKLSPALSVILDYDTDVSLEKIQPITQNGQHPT
In experiment [5] the target is Beta-1 adrenergic receptor (Homo sapiens, UniProt P08588). The class given is functional.
Beta-1 adrenergic receptor, sequence (P08588 whole entry): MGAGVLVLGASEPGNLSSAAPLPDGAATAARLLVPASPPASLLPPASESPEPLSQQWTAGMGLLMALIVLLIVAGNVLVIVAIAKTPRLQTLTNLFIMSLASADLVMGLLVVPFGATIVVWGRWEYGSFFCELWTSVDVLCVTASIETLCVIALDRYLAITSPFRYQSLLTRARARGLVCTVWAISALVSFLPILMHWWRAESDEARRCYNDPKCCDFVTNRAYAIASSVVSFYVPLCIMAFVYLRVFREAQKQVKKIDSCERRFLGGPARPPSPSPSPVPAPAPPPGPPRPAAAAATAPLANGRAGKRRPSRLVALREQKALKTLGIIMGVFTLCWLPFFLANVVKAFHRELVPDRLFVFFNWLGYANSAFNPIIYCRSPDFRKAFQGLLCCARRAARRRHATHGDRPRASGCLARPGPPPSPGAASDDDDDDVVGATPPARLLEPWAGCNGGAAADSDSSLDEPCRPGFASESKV
Experiment [6] deals with 5-hydroxytryptamine receptor 2B (Homo sapiens, UniProt P41595). The class given is functional, cell-based.
5-hydroxytryptamine receptor 2B, sequence (P41595 whole entry): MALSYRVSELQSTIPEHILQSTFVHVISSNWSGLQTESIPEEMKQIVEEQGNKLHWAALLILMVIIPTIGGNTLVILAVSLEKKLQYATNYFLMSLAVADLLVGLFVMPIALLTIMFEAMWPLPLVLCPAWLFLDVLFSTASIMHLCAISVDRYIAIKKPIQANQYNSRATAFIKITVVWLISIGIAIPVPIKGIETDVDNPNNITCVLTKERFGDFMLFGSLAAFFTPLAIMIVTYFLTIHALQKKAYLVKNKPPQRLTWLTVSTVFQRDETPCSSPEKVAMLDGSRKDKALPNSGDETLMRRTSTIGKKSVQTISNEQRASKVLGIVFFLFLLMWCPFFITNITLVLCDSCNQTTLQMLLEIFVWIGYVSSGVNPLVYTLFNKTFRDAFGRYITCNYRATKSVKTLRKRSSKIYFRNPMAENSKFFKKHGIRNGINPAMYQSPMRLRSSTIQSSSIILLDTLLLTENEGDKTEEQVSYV
The next experiment concerns the target Vasopressin V1a receptor (Homo sapiens, UniProt P37288).
Experiment [7] has as its target T4, Gastrin/cholecystokinin type B receptor (Homo sapiens, UniProt P32239).
T4 sequence (P32239 whole entry): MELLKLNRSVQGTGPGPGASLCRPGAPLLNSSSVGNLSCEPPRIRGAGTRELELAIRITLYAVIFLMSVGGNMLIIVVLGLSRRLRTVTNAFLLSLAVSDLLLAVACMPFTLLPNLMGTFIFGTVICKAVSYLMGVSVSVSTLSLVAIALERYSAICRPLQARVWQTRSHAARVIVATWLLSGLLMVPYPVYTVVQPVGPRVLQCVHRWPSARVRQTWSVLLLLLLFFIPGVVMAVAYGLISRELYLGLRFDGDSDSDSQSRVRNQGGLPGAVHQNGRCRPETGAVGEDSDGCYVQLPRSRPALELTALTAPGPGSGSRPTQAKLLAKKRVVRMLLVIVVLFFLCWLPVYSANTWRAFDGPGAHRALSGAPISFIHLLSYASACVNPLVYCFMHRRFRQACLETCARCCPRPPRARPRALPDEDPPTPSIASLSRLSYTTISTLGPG

In experiment [8] the target is T2, Progesterone receptor.
The target of a further experiment is Cannabinoid receptor 1 (Homo sapiens, UniProt P21554). The class given is functional, cell-based.
Cannabinoid receptor 1, sequence (P21554 whole entry): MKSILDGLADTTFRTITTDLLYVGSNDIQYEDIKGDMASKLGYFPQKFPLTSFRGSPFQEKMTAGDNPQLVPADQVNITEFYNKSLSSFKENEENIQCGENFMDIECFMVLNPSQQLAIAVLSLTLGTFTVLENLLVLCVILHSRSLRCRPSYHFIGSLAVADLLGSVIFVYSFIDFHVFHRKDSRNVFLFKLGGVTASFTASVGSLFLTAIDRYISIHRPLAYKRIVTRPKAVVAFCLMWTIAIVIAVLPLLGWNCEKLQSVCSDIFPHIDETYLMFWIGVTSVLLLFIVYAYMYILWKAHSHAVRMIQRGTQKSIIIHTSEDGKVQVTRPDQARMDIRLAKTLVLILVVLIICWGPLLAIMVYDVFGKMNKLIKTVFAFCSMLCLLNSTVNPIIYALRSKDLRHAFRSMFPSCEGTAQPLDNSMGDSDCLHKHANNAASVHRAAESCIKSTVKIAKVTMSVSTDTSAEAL
Experiment [9] concerns the target T3, D(1A) dopamine receptor.
For experiment [10], the target named is Sodium-dependent noradrenaline transporter (Homo sapiens, UniProt P23975).
Sodium-dependent noradrenaline transporter, sequence (P23975 whole entry): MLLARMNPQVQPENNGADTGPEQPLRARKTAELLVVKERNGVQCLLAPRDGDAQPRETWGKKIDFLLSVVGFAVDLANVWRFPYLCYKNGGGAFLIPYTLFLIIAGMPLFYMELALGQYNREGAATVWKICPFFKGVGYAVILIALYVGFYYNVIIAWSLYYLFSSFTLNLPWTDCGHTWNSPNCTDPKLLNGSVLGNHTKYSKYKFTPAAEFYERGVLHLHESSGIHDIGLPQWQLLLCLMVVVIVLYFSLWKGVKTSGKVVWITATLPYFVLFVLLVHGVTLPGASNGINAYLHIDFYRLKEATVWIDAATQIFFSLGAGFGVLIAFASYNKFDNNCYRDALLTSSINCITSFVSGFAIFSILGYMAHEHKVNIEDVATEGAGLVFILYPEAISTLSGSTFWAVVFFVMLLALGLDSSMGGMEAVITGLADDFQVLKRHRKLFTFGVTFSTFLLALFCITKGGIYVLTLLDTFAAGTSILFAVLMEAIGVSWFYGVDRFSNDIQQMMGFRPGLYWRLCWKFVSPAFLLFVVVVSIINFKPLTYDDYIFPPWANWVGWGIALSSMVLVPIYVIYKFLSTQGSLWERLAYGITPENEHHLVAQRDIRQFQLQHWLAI
The target of another experiment is Prothrombin (Homo sapiens, UniProt P00734). The class given is functional.
The next experiment concerns the target Mu-type opioid receptor (Homo sapiens, UniProt P35372).
Experiment [11] has as its target T5, 5-hydroxytryptamine receptor 1A (Homo sapiens, UniProt P08908).
T5 sequence (P08908 whole entry): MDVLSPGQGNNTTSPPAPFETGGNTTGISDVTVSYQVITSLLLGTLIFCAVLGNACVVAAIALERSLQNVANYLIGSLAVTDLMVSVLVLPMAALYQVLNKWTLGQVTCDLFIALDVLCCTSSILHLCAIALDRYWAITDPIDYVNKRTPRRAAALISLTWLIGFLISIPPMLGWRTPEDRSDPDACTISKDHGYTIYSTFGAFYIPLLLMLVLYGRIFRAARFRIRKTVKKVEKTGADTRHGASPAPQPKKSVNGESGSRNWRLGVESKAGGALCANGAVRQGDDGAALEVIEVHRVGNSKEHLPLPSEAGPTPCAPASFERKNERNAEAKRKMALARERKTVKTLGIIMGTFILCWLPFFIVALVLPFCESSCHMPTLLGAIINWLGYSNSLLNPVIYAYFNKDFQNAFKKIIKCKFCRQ
Note: assay procedure not described here.

Vasopressin V1a receptor, sequence (P37288 whole entry): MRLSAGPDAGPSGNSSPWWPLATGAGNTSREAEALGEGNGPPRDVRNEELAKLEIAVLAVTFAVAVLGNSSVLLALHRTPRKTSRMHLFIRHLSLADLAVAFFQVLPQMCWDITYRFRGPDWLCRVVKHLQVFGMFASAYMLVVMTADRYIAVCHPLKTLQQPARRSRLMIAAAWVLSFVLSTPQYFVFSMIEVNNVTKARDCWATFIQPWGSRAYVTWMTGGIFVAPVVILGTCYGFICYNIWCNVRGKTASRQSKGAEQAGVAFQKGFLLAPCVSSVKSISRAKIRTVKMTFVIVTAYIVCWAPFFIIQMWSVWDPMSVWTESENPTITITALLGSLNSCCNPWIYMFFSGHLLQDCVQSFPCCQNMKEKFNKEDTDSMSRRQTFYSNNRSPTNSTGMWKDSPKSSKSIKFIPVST
Mu-type opioid receptor, sequence (P35372 whole entry): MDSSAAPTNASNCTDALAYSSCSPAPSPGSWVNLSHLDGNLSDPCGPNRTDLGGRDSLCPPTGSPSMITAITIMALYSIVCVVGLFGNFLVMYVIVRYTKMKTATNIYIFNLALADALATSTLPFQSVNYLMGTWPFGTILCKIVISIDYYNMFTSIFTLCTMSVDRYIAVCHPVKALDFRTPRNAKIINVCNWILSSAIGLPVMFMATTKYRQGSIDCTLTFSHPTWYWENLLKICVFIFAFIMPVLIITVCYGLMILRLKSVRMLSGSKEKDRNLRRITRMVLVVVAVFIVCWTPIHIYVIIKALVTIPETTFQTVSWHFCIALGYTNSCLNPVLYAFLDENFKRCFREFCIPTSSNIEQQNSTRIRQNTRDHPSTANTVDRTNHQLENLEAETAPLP

With `Cc1cc2cc3c(C)cc(=O)oc3c(C)c2o1` [TRIOXSALEN], the AC50 was above 10 µM in experiment [1]; above 30 µM on Progesterone receptor [2]; above 10 µM in [3]; above 10 µM on D(1A) dopamine receptor [4]; above 10 µM in experiment [5]; above 10 µM in experiment [6].

Regarding `Clc1ccc(C(Cn2ccnc2)OCc2ccsc2Cl)c(Cl)c1` (centres undefined) [TIOCONAZOLE], the AC50 at Vasopressin V1a receptor was above 30 µM; in experiment [1], above 30 µM; at Progesterone receptor [2], 10.3 µM; in experiment [3], above 30 µM; on D(1A) dopamine receptor [4], above 30 µM; in experiment [5] it was 24.3 µM. The AC50 in [7] and in [6] was above 30 µM each time.

`O=[N+]([O-])c1ccc(O)c2ncccc12` [NITROXOLINE]: the concentration at half-maximal activity (AC50) (in experiment [1]; at Progesterone receptor [8]; in experiment [3]; on Cannabinoid receptor 1; at D(1A) dopamine receptor [9]; on D(1A) dopamine receptor [4]) was above 30 µM in each case. In addition, the AC50 (in experiment [10]; in experiment [6]; at Prothrombin; at Mu-type opioid receptor; in [11]) was above 30 µM throughout.

`C=C1CC[C@H](O)C/C1=C/C=C1\CCC[C@]2(C)[C@@H]([C@H](C)/C=C/[C@H](C)C(C)C)CC[C@@H]12` [ERGOCALCIFEROL]: the AC50 (at Progesterone receptor [8]; at D(1A) dopamine receptor [9]; in experiment [10]; at Prothrombin; at Mu-type opioid receptor; in [11]) was above 30 µM each time.

Regarding `O=C(O)c1cn(C2CC2)c2cc(N3CCNCC3)c(F)cc2c1=O` [CIPROFLOXACIN], the AC50 on Vasopressin V1a receptor is above 10 µM; at Progesterone receptor [8], above 30 µM; in [7], above 30 µM; at Prothrombin, above 30 µM.

As for `C=CCNc1nc(NCC=C)nc(N2CCN(C(c3ccc(F)cc3)c3ccc(F)cc3)CC2)n1` [ALMITRINE], the AC50 (at Vasopressin V1a receptor; in experiment [1]; at Progesterone receptor [2]; in experiment [3]; at D(1A) dopamine receptor [4]; in [5]) was above 30 µM in each case. In addition, the AC50 in experiment [7] and in experiment [6] was above 30 µM each time.

Regarding `CC(C)[C@H](N)C(=O)OCC(CO)OCn1cnc2c(=O)nc(N)[nH]c21` (some centres undefined) [VALGANCICLOVIR], the AC50 (at Vasopressin V1a receptor; in [1]; on Progesterone receptor [2]; in experiment [3]; at D(1A) dopamine receptor [4]; in [5]) was above 30 µM each time. Moreover, the AC50 in experiment [7] and in experiment [6] was above 30 µM each time.

For the compound `CCN(CC)C(=S)S` [DITIOCARB], the AC50 (on Progesterone receptor [8]; on D(1A) dopamine receptor [9]; in [10]; at Prothrombin; at Mu-type opioid receptor; in experiment [11]) was above 30 µM each time.

For `Cc1noc(NS(=O)(=O)c2ccc(N)cc2)c1C` [SULFISOXAZOLE], the AC50 in [1] is above 10 µM; at Progesterone receptor [2] it was above 10 µM; in [3] it was above 10 µM; at Cannabinoid receptor 1, above 30 µM; at D(1A) dopamine receptor [4], above 10 µM; in [5], above 10 µM. Further, in experiment [6], the AC50 is above 10 µM.

Take `CCCCC1C(=O)N(c2ccccc2)N(c2ccccc2)C1=O` [PHENYLBUTAZONE]: the AC50 at Vasopressin V1a receptor was above 30 µM; in experiment [1], above 10 µM; on Progesterone receptor [2], above 10 µM; in experiment [3], above 10 µM; on D(1A) dopamine receptor [4] it was above 10 µM; in [5], above 10 µM. The AC50 in experiment [7] was above 30 µM; in experiment [6], above 10 µM.

With `CC1OC2(CS1)CN1CCC2CC1` (centres undefined) [CEVIMELINE], the AC50 was above 10 µM at Vasopressin V1a receptor; above 10 µM in [1]; above 10 µM at Progesterone receptor [2]; above 10 µM in experiment [3]; above 30 µM on D(1A) dopamine receptor [4]; above 10 µM in experiment [5]. Further, the AC50 in experiment [6] is above 10 µM.

For `Cc1cnc(C(=O)NCCc2ccc(S(=O)(=O)NC(=O)NC3CCCCC3)cc2)cn1` [GLIPIZIDE], the concentration at half-maximal activity (AC50) at Vasopressin V1a receptor was above 10 µM; in [1] it was above 10 µM; at Progesterone receptor [8], above 30 µM; in [5], above 10 µM; in [7], above 30 µM; at Prothrombin it was above 30 µM. The AC50 in [11] amounted to 29.9 µM.

Turning to `CC(C)COCC(CN(Cc1ccccc1)c1ccccc1)N1CCCC1` (centres undefined) [BEPRIDIL], the AC50 (at Vasopressin V1a receptor; in experiment [1]; on Progesterone receptor [2]; at D(1A) dopamine receptor [4]; in [7]; in [6]) was above 30 µM in each case.

`Nc1ncn([C@H]2C[C@H](O)[C@@H](CO)O2)c(=O)n1` [DECITABINE]: the AC50 is above 30 µM on Vasopressin V1a receptor; above 30 µM in experiment [1]; above 30 µM on Progesterone receptor [2]; above 30 µM in [3]; above 30 µM at D(1A) dopamine receptor [4]; 19.1 µM in experiment [5]. Further, the AC50 in [7] and in [6] was above 30 µM throughout.

As to `CCC1(c2ccccc2)CCC(=O)NC1=O` (centres undefined) [GLUTETHIMIDE], the AC50 was above 10 µM at Vasopressin V1a receptor; above 10 µM in experiment [1]; above 10 µM at Progesterone receptor [2]; above 10 µM in experiment [3]; above 30 µM at Cannabinoid receptor 1; above 10 µM on D(1A) dopamine receptor [4]. The AC50 in [5] and in experiment [6] was above 10 µM throughout.

With `CCOC(=O)c1cncn1[C@H](C)c1ccccc1` [ETOMIDATE], the AC50 (on Vasopressin V1a receptor; in experiment [1]; on Progesterone receptor [2]; at D(1A) dopamine receptor [4]; in experiment [5]; in experiment [6]) was above 10 µM each time.
